Here are results for four compounds from US20180028480A1, “METHODS OF REDUCING OR PREVENTING OXIDATIVE MODIFICATION OF MEMBRANE POLYUNSATURATED FATTY ACIDS” (Amarin Pharmaceuticals Ireland Limited, priority 2015, published 2018).

Assay [1] in a line: X-ray diffraction of glucose-treated DLPC/cholesterol membranes under oxidative conditions (Example 8). Particulars: for effect on d-space values: 10.0 μM, 0.6 C/P, glucose-induced lipid peroxidation 72 hours (FIG. 14); for cholesterol domain peaks compared to samples treated with EPA: after 96 hours, C/P 0.6:1, drug-to-phospholipid 1:30. As for the experimental part:
Values are reported as mean±S.D. (N=3).
[…] Membranes were reconstituted from DLPC and cholesterol at a C/P mole ratio of 0.6:1 and treated with the various agents to achieve a total drug-to-phospholipid mole ratio of 1:30.
(§1) Multilamellar vesicles (MLVs) were prepared as binary mixtures of POPC and cholesterol at 50 mol %. MLVs with DLPC and cholesterol at cholesterol-to-phospholipid (C/P) mole ratios of 0.1:1 to 1.1:1 were also prepared in a similar manner. Component lipids (in chloroform) were transferred to borosilicate culture tubes and combined with vehicle (ethanol) or an equal volume of EPA, DHA, fenofibrate, niacin or gemfibrozil stock solution(s) and adjusted to achieve a drug-to-phospholipid (D/P) mole ratio of 1:30. Membranes reconstituted from POPC and cholesterol (at 50 mol % cholesterol) were treated with each of the various agents at 5 mol %. Samples were then shell-dried under nitrogen gas and placed under vacuum for 3 hours to remove residual solvent.
After drying, each sample was resuspended in glucose-free or glucose-containing saline buffer to yield a final phospholipid concentration of 2.5 mg/mL. Lipid suspensions were then vortexed for 3 minutes at ambient temperature to form MLVs.
Membrane samples were oriented for x-ray diffraction analysis as described in Mason, et al., J. Biol. Chem., vol. 281, pages 9337-45 (2006). Briefly, 100 μL aliquots of each MLV preparation (containing 250 μg of phospholipid) were transferred to Lucite sedimentation cells fitted with a removable aluminum foil substrate designed to collect MLVs into a single membrane pellet upon centrifugation. Samples were then loaded into a Sorvall AH-629 swinging bucket ultracentrifuge rotor (DuPont Corp., Wilmington, Del.) and centrifuged at 35,000 g, 5° C., for 1.5 hours.
Following membrane orientation, sample supernatants were aspirated and aluminum foil substrates mounted onto curved glass slides. The membrane samples were then placed in hermetically sealed containers in which temperature and relative humidity were controlled during x-ray diffraction analysis. Data reported in this study were collected at 20° C. and 74% relative humidity.
This technique allows for precise measurement of the unit cell periodicity, or d-space, of the membrane lipid bilayer, which is the distance from the center of one lipid bilayer to the next, including surface hydration.
The presence of cholesterol domains in a given membrane sample results in the production of distinct Bragg (diffraction) peaks that have singular periodicity values of 34 Å and 17 Å. These peaks are typically referred to as first- and second-order cholesterol domain peaks.

The nature of assay [2]: X-ray diffraction of cholesterol-enriched POPC membranes without oxidative conditions (Example 8). As to conditions: 5 mol %; 50 mol % cholesterol; 15° C., 20° C., 30° C. (FIG. 18). How it is done: Values are mean±S.D. (N=3).
FIGS. 18A-18C show representative x-ray diffraction patterns collected from cholesterol-enriched model membranes treated with vehicle (control), eicosapentaenoic acid (EPA), or docosahexaenoic acid (DHA) and examined at 15° C., 20° C., and 30° C. Membranes were reconstituted from POPC and cholesterol at 50 mol % cholesterol and treated with each of the various agents at 5 mol % (to match treatments used in corresponding lipid dynamics experiments). Each sample was maintained at 74% relative humidity by exposing the samples to a saturated solution of L-(+) tartaric acid. […] DHA, but not EPA or vehicle, induced the formation of cholesterol domains, which are indicated by a distinct set of diffraction peaks (shaded peaks) having a characteristic d-space value of 34 Å and shown to be stable over a broad range of temperatures.
as §1
Membrane samples were oriented for x-ray diffraction analysis as described in Mason, et al., J. Biol. Chem., vol. 281, pages 9337-45 (2006). Briefly, 100 μL aliquots of each MLV preparation (containing 250 μg of phospholipid) were transferred to Lucite sedimentation cells fitted with a removable aluminum foil substrate designed to collect MLVs into a single membrane pellet upon centrifugation. […]

The nature of assay [3]: Fluorescence anisotropy, DPH apparent rotational correlation time (Example 8). Particulars: POPC, 0 or 50 mol % cholesterol; increasing omega-3 fatty acid concentrations (FIGS. 16A-16B). The source says: FIGS. 16A-16B show the dose-dependent effects of EPA and DHA on the ARCT measured for DPH in POPC membranes prepared at either 0 or 50 mol % cholesterol. †p=0.0331 versus cognate DHA treatment (5 mol % omega-3 fatty acids (O3FA), no cholesterol); ^§p=0.0016 versus cognate DHA treatment (5 mol % O3FA, 50 mol % cholesterol); ^‡p=0.0032 versus cognate DHA treatment (10 mol % O3FA, 50 mol % cholesterol) (unpaired, two-tailed Student's t-test). Values are mean±S.D. (N=3).
Fluorescence anisotropy experiments were conducted using large unilamellar vesicles (LUVs) of 100 nm diameter of either POPC (or POPC/cholesterol) containing increasing concentrations of EPA or DHA and 1 mol % DPH fluorescent. Briefly, 640 nmol of total lipid (phospholipid and sterol) and 6.4 nmol of fluorescent probe was mixed well and dried under a stream of nitrogen while being warmed gently at 35° C. […]
In order to ensure that the anisotropy values measured for DPH are not influenced by lifetime-induced artifacts, the apparent (average) rotational correlation times (ARCT) were calculated using Perrin's equation: […]
where r0 is the limiting anisotropy of DPH, r is the steady state anisotropy, and is the mean fluorescence lifetime.

Assay [4] deals with lipid vesicles enriched with PUFAs and cholesterol. Nature of the assay: Glucose-induced membrane lipid peroxidation (LOOH) in DLPC/cholesterol multilamellar vesicles (Example 4). Particulars: each at 1.0 μM; glucose 200 mg/dL; 96 hours. In kind it is biochemical. How it is done:
Vitamin E (α-tocopherol) was also purchased from Sigma-Aldrich and prepared in ethanol at 1.0 mM (ε32 3.06×10^4 M^−1 cm^−1 at 294 nm) just prior to experimental use. […] All test compounds were further diluted in ethanol or aqueous buffer as needed. Glucose was prepared in saline buffer (0.5 mM HEPES, 154 mM NaCl, pH 7.3) at 11.0 mM (200 mg/dL). CHOD-iodide color reagent (stock) was prepared, with slight modification, as described by from El-Saadani et al. (J. […] Prior to experimental use, the CHOD reagent was activated by adding 24 μM ethylenediaminetetraacetic acid (EDTA), 20 μM butylated hydroxytoluene (BHT), and 0.2% Triton X-100. Multilamellar vesicles (MLVs) were prepared as binary mixtures of DLPC (1.0 or 2.5 mg total phospholipid per sample) and cholesterol at a fixed cholesterol-to-phospholipid (C/P) mole ratio of 0.6:1. Component lipids (in chloroform) were transferred to 13×100 mm borosilicate culture tubes and combined with vehicle (ethanol) or an equal volume of fatty acid, vitamin E, or ATM stock solutions, each adjusted to achieve desired treatment concentrations. Samples were shell-dried under nitrogen gas and placed under vacuum for 1 h to remove residual solvent. […] Lipid suspensions were then vortexed for 3 min at ambient temperature to form MLVs. All MLV samples were subjected to time-dependent autoxidation by incubating at 37° C. in an uncovered, shaking water bath. This method allows lipid peroxidation to occur gradually without requiring the use of exogenous initiators. Small aliquots (5-100 μL) of each sample were removed, immediately following MLV preparation (0 hour) and after exposing samples to oxidative conditions for 72 or 96 hour, and combined with 1.0 mL of activated CHOD-iodide color reagent. Aliquot volume was reduced with each successive time point to ensure that spectrophotometric readings were within the optimal adsorption range. Test samples were covered and incubated in darkness at room temperature for at least 4 hr. Sample absorbances were then measured against a CHOD blank at 365 nm using a Beckman DU-640 spectrophotometer. The CHOD colorimetric assay is based on the oxidation of iodide (I^−) by lipid hydroperoxide (LOOH) to form triiodide (I3^−), the quantity of which is directly proportional to the amount of LOOH present in the lipid sample. The molar absorptivity (c) of I3^− is 2.46×10^4 M^−1 cm^−1 at 365 nm. […] The concentration of glucose selected was consistent with previous experimental studies of hyperglycemia under controlled laboratory conditions or observed in well-defined animal models of Type II diabetes following a glucose challenge. […] Values in FIG. 1 are mean±S.D. (N=6). […]

Molecules are shown by their SMILES.

Turning to `Cc1ccc(C)c(OCCCC(C)(C)C(=O)O)c1` [gemfibrozil], in assay [1], the “effect on d-space values” was “significant reductions in d-space” and the “cholesterol domain peaks compared to samples treated with EPA” value was “disproportionately greater”.
The like results for `O=C(O)c1cccnc1` [niacin, nicotinic acid] were, in that order, “significant reductions in d-space” and “disproportionately greater”.
Turning to `CC/C=C\C/C=C\C/C=C\C/C=C\C/C=C\C/C=C\CCC(=O)O` [DHA, cis-4,7,10,13,16,19-docosahexaenoic acid, reference compound], in assay [2], the “membrane cholesterol domain formation” value is “induced formation of membrane cholesterol domains”. In assay [3], the “DPH apparent rotational correlation time / membrane fluidity” value is on record as “reduced DPH apparent rotational correlation time”.
`CC(C)c1c(C(=O)Nc2ccccc2O)c(-c2ccccc2)c(-c2ccc(F)cc2)n1CC[C@@H](O)C[C@@H](O)CC(=O)O` [ATM, Atorvastatin ortho- (o-) hydroxy (active) metabolite, reference compound]: the “antioxidant effect (LOOH formation), separate treatments” value in assay [4] was “separate and potent antioxidant effects”.
